pIC50: −log10 of the molar value.
System: Staphylococcus aureus
Experiment: Antibacterial activity against Staphylococcus aureus ATCC 25923 assessed as growth inhibition after 24 hrs by microdilution method
Format: functional, organism-based

Compound | pIC50 (Staphylococcus aureus, ATCC 25923, 24 h) | pIC50
O=C(N[C@H](CO)[C@H](O)c1ccc([N+](=O)[O-])cc1)C(Cl)Cl [CHLORAMPHENICOL] | 6.37 | –
GENTAMICIN | – | 8.00
